In US8546352B2, “Pharmacological preparation for topical use containing N-palmitoyl-vanillamide” (Epitech Group S.r.l., priority 2010, dated 2013):

Legend:
[1] = test system: eye-wiping movements in mice; settings: mouse
[2] = test system: capsaicin-induced eye-wiping movements in mice; assay: Eye-wiping assay in mice, effect on capsaicin-induced wiping; format: in vivo, mouse; settings: for Capsaicin-induced wiping movements after Palvanil: same eye
[3] = target: T1, recombinant human TRPV1 (HEK-293 cells) (Homo sapiens, UniProt Q8NER1); assay: TRPV1-mediated elevation of intracellular [Ca2+] (agonist activity); format: cell-based
T1 construct: expressed in transfected cells
T1 sequence (Q8NER1 whole entry): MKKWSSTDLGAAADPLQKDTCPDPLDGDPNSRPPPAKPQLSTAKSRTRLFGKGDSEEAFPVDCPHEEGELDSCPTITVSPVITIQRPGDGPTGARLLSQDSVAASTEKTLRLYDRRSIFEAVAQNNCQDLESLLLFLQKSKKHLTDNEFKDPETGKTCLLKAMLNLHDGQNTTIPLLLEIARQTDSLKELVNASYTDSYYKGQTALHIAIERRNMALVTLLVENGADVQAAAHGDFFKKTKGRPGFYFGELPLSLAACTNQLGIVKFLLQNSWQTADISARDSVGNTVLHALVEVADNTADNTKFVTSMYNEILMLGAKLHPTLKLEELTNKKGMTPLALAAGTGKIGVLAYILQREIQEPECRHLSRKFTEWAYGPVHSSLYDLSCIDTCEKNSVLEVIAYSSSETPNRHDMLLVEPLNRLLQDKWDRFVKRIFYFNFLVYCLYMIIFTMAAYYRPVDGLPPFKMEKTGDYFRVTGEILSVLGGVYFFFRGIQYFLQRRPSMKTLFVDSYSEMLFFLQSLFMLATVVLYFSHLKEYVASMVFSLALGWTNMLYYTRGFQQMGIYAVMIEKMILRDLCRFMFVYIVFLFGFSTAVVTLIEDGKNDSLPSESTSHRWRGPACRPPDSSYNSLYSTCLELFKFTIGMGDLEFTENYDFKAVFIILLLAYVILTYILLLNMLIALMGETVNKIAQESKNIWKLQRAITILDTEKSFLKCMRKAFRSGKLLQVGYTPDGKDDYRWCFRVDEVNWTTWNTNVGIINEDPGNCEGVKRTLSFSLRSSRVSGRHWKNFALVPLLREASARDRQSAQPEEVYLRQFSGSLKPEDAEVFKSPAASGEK

[4] = target: T1, recombinant human TRPV1 (HEK-293 cells); assay: Desensitization of capsaicin (10 nM)-induced TRPV1-mediated elevation of intracellular [Ca2+]; format: cell-based
[5] = target: T1, recombinant human TRPV1 (HEK-293 cells); assay: Desensitization of anandamide/low pH-induced TRPV1-mediated elevation of intracellular [Ca2+]; format: cell-based; settings: for IC50: read-out: IC50, desensitization of anandamide effect

C=C(C)[C@]12C[C@@H](C)[C@@]34O[C@](Cc5ccccc5)(O[C@@H]1[C@@H]3C=C(COC(=O)Cc1cc(I)c(O)c(OC)c1)C[C@]1(O)C(=O)C(C)=C[C@@H]41)O2 [I-RTX, 5′-iodo-resiniferatoxin, reference compound]
Eye-wiping reflexes per se ([1]; in vivo): did not cause any reflexes per se | Effect of I-RTX pre-treatment on Palvanil's reduction of capsaicin-induced wiping ([2]; mouse, in vivo): completely reverted

CCCCCCCCCCCCCCCC(=O)NCc1ccc(O)c(OC)c1 [Palvanil, N-(4-hydroxy-3-methoxybenzyl)palmitoylamide]
EC50 ([3]; HEK-293-TRPV1 cells, Fluo-4, read-out: EC50, increase in intracellular calcium): 0.65 ± 0.04 nM | Capsaicin-induced wiping movements after Palvanil ([2]; Palvanil 10 μg/ml, 1 hour before capsaicin 10 μg/ml): 8.2±0.9 wiping movements | Capsaicin-induced wiping movements after Palvanil ([2]; Palvanil 10 μg/ml, 3 hours before capsaicin 10 μg/ml): 7.0±0.9 wiping movements | Capsaicin-induced wiping movements after Palvanil ([2]; Palvanil 30 μg/ml, 1 hour before capsaicin 10 μg/ml): 6.7±0.7 wiping movements | Capsaicin-induced wiping movements after Palvanil ([2]; Palvanil 30 μg/ml, 3 hours before capsaicin 10 μg/ml): 6.0±0.8 wiping movements | Pre-incubation time at which desensitizing effect reached a maximum ([4]; 2 nM Palvanil, 10 nM capsaicin stimulation): ~50 min | IC50 ([4]; read-out: IC50, desensitization of TRPV1 to the effect of capsaicin, 10 nM capsaicin, compound given 5 min before): 0.81 ± 0.07 nM | Inhibitory effect on anandamide response ([5]; 1 nM compound, 0.5 μM AEA, at both pH values): > 50% | IC50 ([5]; 0.5 μM AEA, acid pH (6.5)): 0.3 ± 0.01 nM | Fold more potent at the lower pH ([5]; 0.5 μM AEA, pH 6.5 vs pH 7.4): 90 fold | IC50 ([5]; 0.5 μM AEA, physiological pH (7.4)): 0.9 ± 0.1 nM | IC50 ([5]; anandamide 0.25 mM (so in the source), acid pH): 0.5 ± 0.02 nM

COc1cc(CNC(=O)CCCC/C=C/C(C)C)ccc1O [capsaicin, reference compound]
Speed of TRPV1 activation (time to achieve 90% of total TRPV1 mediated calcium influx) ([3]; different concentrations, greatest difference at 1 μM, capsaicin vs Palvanil): always significantly faster | Wiping movements monitored within 30 seconds ([1]; capsaicin solution 10 μg/ml into the eye): 12±0.9 wiping movements | Desensitizing effect at different pre-incubation times, compared with Palvanil ([4]; 10 nM capsaicin pre-incubation, 10 nM capsaicin stimulation): significantly less pronounced desensitizing effect
